Assay results as given in patent EP0044212B1, “Herbicidal o-alkylsulfonyloxy- and o-alkylsulfonylamino-benzenesulfonamides” (E.I. DU PONT DE NEMOURS AND COMPANY, priority 1980, dated 1982).

Legend:
Dallisgrass = test: Test B pre-emergence on Fallsington silt loam; format: in vivo, Paspalum dilatatum; parameters: scale not given here; conditions: 28 days
Excerpt: (§1) Two plastic bulb pans were filled with fertilized and limed Fallsington silt loam soil. One pan was planted with corn, sorghum, Kentucky bluegrass and several grassy weeds. The other pan was planted with cotton, soybeans, purple nutsedge (Cyperus rotundus), and several broadleaf weeds. The following grassy and broadleaf weeds were planted: crabgrass (Digitaria sanguinalis), barnyardgrass (Echinochloa crusgalli), wild oats (Avena fatua), johnsongrass (Sorghum halepense), dallisgrass (Paspalum dilatatum), giant foxtail (Setaria faberii), cheatgrass (Bromus secalinus), mustard (Brassica arvensis), cocklebur (Xanthium pensylvanicum), pigweed (Amaranthus retroflexus), morningglory (Ipomoea hederacea), cassia (Cassia tora), teaweed (Sida spinosa), velvetleaf (Abutilon theophrasti), and jimsonweed (Datura stramonium). A 12.5 cm diameter plastic pot was also filed with prepared soil and planted with rice and wheat. Another 12.5 cm pot was planted with sugarbeets. The above four containers were treated pre- emergence with several test compounds within the scope of the invention.
(§2) Twenty-eight days after treatment, the plants were evaluated and visually rated for response to the chemical treatments utilizing the rating system described previously for Test A. The data are summarized in Table B.

Cassia = test: Test B pre-emergence on Fallsington silt loam; format: in vivo, Cassia tora; conditions: 28 days
Excerpt: as §1, §2

Giant Foxtail [1] = test: Test B pre-emergence on Fallsington silt loam; format: in vivo, Setaria faberii; conditions: 28 days
Excerpt: as §1, §2

Ky. bluegrass = test: Test B pre-emergence on Fallsington silt loam; format: in vivo, Kentucky bluegrass; parameters: scale not given here; conditions: 28 days
Excerpt: as §1, §2

Nutsedge [2] = test: Test F over-the-top soil/foliage treatment; format: in vivo, Cyperus rotundus; parameters: scale not given here; conditions: soil/foliage spray, ~14 days
Method: (§3) The test chemicals, dissolved in a non-phytotoxic solvent, were applied in an overall spray to the foliage and surrounding […] of selected plant species. […] Approximately fourteen days after treatment, all species were visually compared to untreated controls and rated for response to treatment.
(§4) All plant species were seeded in Woodstown sandy loam soil and grown in a greenhouse. The following species were grown in soil contained in plastic pots (25 cm diameter by 13 cm deep): soybeans, cotton, alfalfa, corn, rice, wheet, sorghum, velvetleaf (Abutilon theophrasti), sesbania (Sesbania exaltata), Cassia (Cassia tora), morningglory (Ipomoea hederacea), jimsonweed (Datura stramonium), cocklebur (Xanthium pensylvanicum), crabgrass (Digitaria spp.), nutsedge (Cyperus rotundus), barnyardgrass (Echinochloa crusgalli), giant foxtail (Setaria faberii) and wild oats (Avena fatua). The following species were grown in soil in a paper cup (12 cm diameter by 13 cm deep): sunflower, sugarbeets, and mustard. All plants were sprayed approximately 14 days after planting.

Alfalfa = test: Test F over-the-top soil/foliage treatment; format: in vivo; parameters: scale not given here; conditions: soil/foliage spray, ~14 days
Method: as §3, §4

Sorghum = test: Test F over-the-top soil/foliage treatment; format: in vivo; parameters: scale not given here; conditions: soil/foliage spray, ~14 days
Method: as §3, §4

Morningglory = test: Test B pre-emergence on Fallsington silt loam; format: in vivo, Ipomoea hederacea; conditions: 28 days
Excerpt: as §1, §2

Wild Oats [3] = test: Test F over-the-top soil/foliage treatment; format: in vivo, Avena fatua; parameters: scale not given here; conditions: soil/foliage spray, ~14 days
Method: as §3, §4

Nutsedge [4] = test: Test B pre-emergence on Fallsington silt loam; format: in vivo, Cyperus rotundus; conditions: 28 days
Excerpt: as §1, §2

Giant Foxtail [5] = test: Test F over-the-top soil/foliage treatment; format: in vivo, Setaria faberii; parameters: scale not given here; conditions: soil/foliage spray, ~14 days
Method: as §3, §4

Wheat [6] = test: Test F over-the-top soil/foliage treatment; format: in vivo, wheet; parameters: scale not given here; conditions: soil/foliage spray, ~14 days
Method: as §3, §4

Cocklebur = test: Test B pre-emergence on Fallsington silt loam; format: in vivo, Xanthium pensylvanicum; conditions: 28 days
Excerpt: as §1, §2

Cheatgrass = test: Test B pre-emergence on Fallsington silt loam; format: in vivo, Bromus secalinus; conditions: 0.007 kg/ha, 28 days
Excerpt: as §1, §2

Soybean = test: Test B pre-emergence on Fallsington silt loam; format: in vivo, soybeans; conditions: 28 days
Excerpt: as §1, §2

Sugarbeets [7] = test: Test B pre-emergence on Fallsington silt loam; format: in vivo; parameters: scale not given here; conditions: 28 days
Excerpt: as §1, §2

Corn [8] = test: Test B pre-emergence on Fallsington silt loam; format: in vivo; parameters: scale not given here; conditions: 28 days
Excerpt: as §1, §2

Wheat [9] = test: Test B pre-emergence on Fallsington silt loam; format: in vivo; parameters: scale not given here; conditions: 28 days
Excerpt: as §1, §2

Johnsongrass = test: Test B pre-emergence on Fallsington silt loam; format: in vivo, Sorghum halepense; parameters: scale not given here; conditions: 28 days
Excerpt: as §1, §2

Barnyardgrass [10] = test: Test F over-the-top soil/foliage treatment; format: in vivo, Echinochloa crusgalli; parameters: scale not given here; conditions: soil/foliage spray, ~14 days
Method: as §3, §4

Barnyardgrass [11] = test: Test B pre-emergence on Fallsington silt loam; format: in vivo, Echinochloa crusgalli; conditions: 28 days
Excerpt: as §1, §2

Wild Oats [12] = test: Test B pre-emergence on Fallsington silt loam; format: in vivo, Avena fatua; parameters: scale not given here; conditions: 28 days
Excerpt: as §1, §2

Sugarbeets [13] = test: Test F over-the-top soil/foliage treatment; format: in vivo; conditions: soil/foliage spray; 0.007 kg/ha; ~14 days
Method: as §3, §4

Sunflower = test: Test F over-the-top soil/foliage treatment; format: in vivo; conditions: soil/foliage spray; 0.007 kg/ha; ~14 days
Method: as §3, §4

Corn [14] = test: Test F over-the-top soil/foliage treatment; format: in vivo; conditions: soil/foliage spray, ~14 days
Method: as §3, §4

Mustard = test: Test F over-the-top soil/foliage treatment; format: in vivo; conditions: soil/foliage spray; 0.007 kg/ha; ~14 days
Method: as §3, §4

Crabgrass [15] = test: Test B pre-emergence on Fallsington silt loam; format: in vivo, Digitaria sanguinalis; parameters: scale not given here; conditions: 28 days
Excerpt: as §1, §2

Sesbania = test: Test F over-the-top soil/foliage treatment; format: in vivo, Sesbania exaltata; parameters: scale not given here; conditions: soil/foliage spray, ~14 days
Method: as §3, §4

Crabgrass [16] = test: Test F over-the-top soil/foliage treatment; format: in vivo, Digitaria spp.; parameters: scale not given here; conditions: soil/foliage spray, ~14 days
Method: as §3, §4

Cc1cc(C)nc(NC(=O)NS(=O)(=O)c2ccccc2OS(C)(=O)=O)n1 [Compound 3, N-[(4,6-dimethylpyrimidin-2-yl)aminocarbonyl]-2-hydroxybenzenesulfonamide, methanesulfonate]
Dallisgrass response rating (Dallisgrass; 0.007 kg/ha): 0 | Dallisgrass response rating (Dallisgrass; 0.015 kg/ha): 3G | Dallisgrass response rating (Dallisgrass; 0.03 kg/ha): 6G | Cassia response rating (Cassia; 0.007 kg/ha): 0 | Cassia response rating (Cassia; 0.015 kg/ha): 0 | Giant Foxtail response rating (Giant Foxtail [1]; 0.007 kg/ha): 0 | Giant Foxtail response rating (Giant Foxtail [1]; 0.015 kg/ha): 3G | Giant Foxtail response rating (Giant Foxtail [1]; 0.03 kg/ha): 3C | Ky. bluegrass response rating (Ky. bluegrass; 0.007 kg/ha): 0 | Ky. bluegrass response rating (Ky. bluegrass; 0.015 kg/ha): 2G | Ky. bluegrass response rating (Ky. bluegrass; 0.03 kg/ha): 10C | Nutsedge response rating (Nutsedge [2]; 0.003 kg/ha): 5G | Nutsedge response rating (Nutsedge [2]; 0.007 kg/ha): 7G | Alfalfa response rating (Alfalfa; 0.007 kg/ha): 7G | Alfalfa response rating (Alfalfa; 0.015 kg/ha): 8C | Alfalfa response rating (Alfalfa; 0.06 kg/ha): 9C | Sorghum response rating (Sorghum; 0.015 kg/ha): 9C | Sorghum response rating (Sorghum; 0.06 kg/ha): 10C | Morningglory response rating (Morningglory; 0.007 kg/ha): 3G | Morningglory response rating (Morningglory; 0.015 kg/ha): 3G | Morningglory response rating (Morningglory; 0.03 kg/ha): 8G | Wild Oats response rating (Wild Oats [3]; 0.003 kg/ha): 4G | Wild Oats response rating (Wild Oats [3]; 0.007 kg/ha): 5G | Wild Oats response rating (Wild Oats [3]; 0.06 kg/ha): 10C | Nutsedge response rating (Nutsedge [4]; 0.007 kg/ha): 0 | Nutsedge response rating (Nutsedge [4]; 0.015 kg/ha): 0 | Giant Foxtail response rating (Giant Foxtail [5]; 0.003 kg/ha): 0 | Giant Foxtail response rating (Giant Foxtail [5]; 0.007 kg/ha): 0 | Wheat response rating (Wheat [6]; 0.003 kg/ha): 3G | Wheat response rating (Wheat [6]; 0.007 kg/ha): 6G | Wheat response rating (Wheat [6]; 0.015 kg/ha): 1C | Wheat response rating (Wheat [6]; 0.06 kg/ha): 8C | Cocklebur response rating (Cocklebur; 0.007 kg/ha): 0 | Cocklebur response rating (Cocklebur; 0.015 kg/ha): 0 | Cocklebur response rating (Cocklebur; 0.03 kg/ha): 7G | Cheatgrass response rating (Cheatgrass): 0 | Soybean response rating (Soybean; 0.007 kg/ha): 0 | Soybean response rating (Soybean; 0.015 kg/ha): 0 | Sugarbeets response rating (Sugarbeets [7]; 0.015 kg/ha): 4G | Sugarbeets response rating (Sugarbeets [7]; 0.03 kg/ha): 10C | Sugarbeets response rating (Sugarbeets [7]; 0.12 kg/ha): 10C | Corn response rating (Corn [8]; 0.007 kg/ha): 0 | Corn response rating (Corn [8]; 0.015 kg/ha): 0 | Corn response rating (Corn [8]; 0.03 kg/ha): 10C | Corn response rating (Corn [8]; 0.12 kg/ha): 10C | Wheat response rating (Wheat [9]; 0.007 kg/ha): 0 | Wheat response rating (Wheat [9]; 0.015 kg/ha): 0 | Wheat response rating (Wheat [9]; 0.03 kg/ha): 5G | Johnsongrass response rating (Johnsongrass; 0.007 kg/ha): 0 | Johnsongrass response rating (Johnsongrass; 0.015 kg/ha): 3G | Johnsongrass response rating (Johnsongrass; 0.03 kg/ha): 10C | Johnsongrass response rating (Johnsongrass; 0.12 kg/ha): 10C | Barnyardgrass response rating (Barnyardgrass [10]; 0.015 kg/ha): 9C | Barnyardgrass response rating (Barnyardgrass [10]; 0.06 kg/ha): 10C | Barnyardgrass response rating (Barnyardgrass [11]; 0.007 kg/ha): 2G | Barnyardgrass response rating (Barnyardgrass [11]; 0.015 kg/ha): 2G | Wild Oats response rating (Wild Oats [12]; 0.007 kg/ha): 0 | Wild Oats response rating (Wild Oats [12]; 0.015 kg/ha): 0 | Wild Oats response rating (Wild Oats [12]; 0.03 kg/ha): 10C | Wild Oats response rating (Wild Oats [12]; 0.12 kg/ha): 10C | Sugarbeets response rating (Sugarbeets [13]): 10C | Sunflower response rating (Sunflower): 10C | Corn response rating (Corn [14]; 0.007 kg/ha): 9G | Corn response rating (Corn [14]; 0.06 kg/ha): 10C | Mustard response rating (Mustard): 10C | Crabgrass response rating (Crabgrass [15]; 0.007 kg/ha): 0 | Crabgrass response rating (Crabgrass [15]; 0.015 kg/ha): 0 | Crabgrass response rating (Crabgrass [15]; 0.03 kg/ha): 5G | Crabgrass response rating (Crabgrass [15]; 0.12 kg/ha): 6G | Sesbania response rating (Sesbania; 0.015 kg/ha): 9C | Sesbania response rating (Sesbania; 0.06 kg/ha): 9C | Crabgrass response rating (Crabgrass [16]; 0.003 kg/ha): 0 | Crabgrass response rating (Crabgrass [16]; 0.015 kg/ha): 0
